Experimental data from patent publication US9079853B2, “Isatin compounds, compositions and methods for treatment of degenerative diseases and disorders” (MUSC FOUNDATION FOR RESEARCH DEVELOPMENT, priority 2013, dated 2015).

Assays:
[1] = test system: Balb/c mice; assay: Light model assay (constant light damage, eyedrops); type: in vivo, mouse; details: continuous light 7 days, rows of photoreceptors
Excerpt: The light model assay is generally accepted as a model of age related macular degeneration (AMD). […] In particular, oxidative damage has been detected by immunohistochemistry, detecting the presence of oxidized and tyrosine-phosphorylated proteins as well as the upregulation of endogenous antioxidants such as thioredoxin and glutathione peroxidase. […] Additional indirect evidence for the involvement of oxidative stress in photoreceptor degeneration has been provided by treatment of photodamaged retinas with antioxidants such as dimethylthiourea, or the treatment of N-methyl-N-nitrosourea (MNU)-challenged rats with the antioxidant DHA.
The light model assay was used to further test the therapeutic potential of the compounds of the invention. Photoreceptors from albino animals are very sensitive to constant light, lacking the RPE pigment to protect them. Thus, Balb/c mice were exposed to continuous light for 7 days, which caused loss of about 50% of the photoreceptor cells as measured via histology. To test the potential therapeutic efficacy, eyedrops were formulated in 0.1% Bij 35 in […], applied once or twice daily throughout the period of light exposure, and their effect assessed on the light-induced degeneration of photoreceptor cells morphologically and electrophysiologically, 10 days after the onset of the CL exposure.

[2] = test system: retinal explants from Ser344ter-3 rats; assay: S334ter assay, retinal explants; type: cell-based, rat; details: P12-P17 retinal explants
Procedure: To further evaluate neuroprotection, certain compounds of the invention were evaluated with the Ser344ter-3 rats in which a truncation in the rhodopsin […] eliminated a phosphorylation site. It has been shown that the Ser344ter-3 rhodopsin was extensively misfolded causing induction of ER stress genes BiP and CHOP (Kroeger 2012). […] Statistically significant protection against loss of photoreceptor cell nuclei was observed (Table 5 below).

[3] = test system: 661W or C6 cells; assay: MTT assay, protection against calcium-ionophore A23187; type: cell-based; details: 1 μM A23187, 24 h
Procedure: The compound 3-(4,5-Dimethylthiazol-2-yl)-2,5-diphenyltetrazolium bromide (MTT) is a tetrazolium ion that is reduced to a blue formazan dye via several families of NAD(P)H-dependent oxidoreductases. Formation of the formazan dye from MTT or other related tetrazolium dyes are commonly used as a viability assay even though, in fact, the assay is a metabolic capacity assay.
In this assay, 661W or C6 cells were maintained in DMEM supplemented with 10% FBS. 100 μL of 70,000 cells/mL cells were seeded into each well of 96 well plates using DMEM supplemented with 5% FBS. Cells were then allowed to grow to confluency for 48 hours. The compounds of the invention were added in 2 μL media and calcium-ionophore A23187 was then added in 1 μL for a final concentration of 1 μM and after 24 h, 20 μL of […] MTT were added to each well and the cells were incubated for another 4 h after which 100 μL of 1% SDS in 0.01M aqueous HCl were added to each well and the plates were incubated overnight. Absorbance was measured at […] (background correction). The 1 μM ionophore A23187 caused about 50% loss in MTT signal at 24 h. Protection was calculated as the increase in absorbance of treatment groups normalized to the vehicle control.

[4] = test system: rd1 mouse retina organ cultures; assay: Retinal degeneration assay, rd1 mouse retinal explants; type: cell-based; details: rows of photoreceptors in ONL, explants cultured 11 days
Procedure: It was reasoned that the compounds' activities would enable them to protect against loss of photoreceptors in retinal degenerative animal models. As a translational bridge between the cell line-based assays and in vivo animal studies, mouse retina organ cultures were utilized. These retinal explants were a powerful ex vivo screening tool, which allowed the testing of photoreceptor cell survival within the retinal network, and the effects of a specific compound were tested like in an in vitro system, without systemic interference. In this assay, the rd1 mouse was utilized. The genotype of the rd1 mouse has a mutation in the β-subunit of the phosphodiesterase gene. […] The genetic deficit and the retinal pathology were very similar to that observed in the patients with βPDE-dependent RP. In these mice, rod photoreceptor degeneration started after postnatal day 10 (P10), progressing rapidly, such that at P21, only 1-2 rows of photoreceptor remained, mainly representing cones. Finally, the rd1 mouse retina was amenable to culturing, replicating both retinal development and degeneration, following the same time course as in vivo. The retinal explants were cultured for 11 days ex vivo. […] At the end of the experiments, tissues were fixed, sectioned and stained with 0.1% toluidine and the numbers of rows of photoreceptors remaining in the outer nuclear layer (ONL) were counted.

[5] = test system: 661W or C6 cells; assay: XF FCCP-uncoupled oxygen consumption rate assay (IBMX challenge); type: cell-based; details: 1 h pretreatment, 600 μM IBMX, 24 h, read-out: XF FCCP OCR (% Ctrl); for activity at 0.001 µM: compound 1 nM;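 on all read-outs here: values normalized to the vehicle control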
Procedure: The XF FCCP-uncoupled oxygen consumption rate assay assesses mitochondrial capacity by measuring cellular respiration. It was shown that the maximum FCCP-uncoupled oxygen consumption rate (OCR) was a good estimate of maximal mitochondrial capacity (Beeson 2010) and that IBMX treatment of 661W or C6 cells for 24 h caused a loss in maximal uncoupled OCR (Perron 2013). Thus, cells were pretreated with the exemplified compounds for 1 h, added 600 μM IBMX and then measured the uncoupled rate after 24 h. In brief, the OCR measurements were performed using a Seahorse Bioscience XF instrument (Seahorse Bioscience, Billerica, Md.), as previously published (Perron 2013). O2 leakage through the plastic sides and bottom of the plate was accounted for using the AKOS algorithm in the XF software package. Cells were plated on 96- or 24-well custom plates designed for use in the XF and grown to confluency in DMEM+5% FBS (48 h). The medium was then replaced with DMEM+1% FBS for 24 h, along with any treatments.

With `CCCCN1C(=O)C(O)(CC(=O)c2ccccn2)c2ccccc21` (centres unmarked) [Example 12, 1-butyl-3-hydroxy-3-(2-oxo-2-(pyridin-2-yl)ethyl)indolin-2-one] the “LD Protection (# of rows)” value ([1]; 1 mM eyedrops once per day) was 5.33 # of rows, the “s334ter protection (# of rows)” value ([2]; 1 μM) was 1 μM 3.86 # of rows and the “MTT, % protection” value ([3]; compound 10 μM) was 67%,. The “rd1 protection (# of rows)” value ([4]; 5 μM) was 5 μM, 3.19 # of rows and the activity at 10 µM ([5]; compound 10uM) was 73%.

With `C#CCCCN1C(=O)C(O)(CC(=O)c2c[nH]c3ccccc23)c2cc(C)ccc21` (centres unmarked) [Example 13, 3-(2-(1H-indol-3-yl)-2-oxoethyl)-3-hydroxy-5-methyl-1-(pent-4-yn-1-yl)indolin-2-one] the “LD Protection (# of rows)” value ([1]; 1 mM eyedrops once per day) was 5.44 # of rows and the “MTT, % protection” value ([3]; compound 100 nM) was 79.4%,.

`COc1cccc(C(=O)CC2(O)C(=O)N(CCCN=[N+]=[N-])c3ccc(C)cc32)n1` (centres unmarked) [Example 28, 1-(3-azidopropyl)-3-hydroxy-3-(2-(6-methoxypyridin-2-yl)-2-oxoethyl)-5-methylindolin-2-one] was tested, and the “LD Protection (# of rows)” value ([1]; 1 mM eyedrops once per day) was 5.55 # of rows and the “MTT, % protection” value ([3]; compound 1 μM) was 65.9%,.

`CCCN1C(=O)C(O)(CC(=O)c2c[nH]c3ccccc23)c2cc(Cl)ccc21` (centres unmarked) [Example 31, 3-(2-(1H-indol-3-yl)-2-oxoethyl)-5-chloro-3-hydroxy-1-propylindolin-2-one] was tested, and the “LD Protection (# of rows)” value ([1]; 1 mM eyedrops once per day) was 5.94 # of rows, the “MTT, % protection” value ([3]; compound 1 nM) was 64.2%, and the “rd1 protection (# of rows)” value ([4]; 10 nM) was 10 nM, 2.53 # of rows. The activity at 0.001 µM [5] was 74%.

`CCN1C(=O)C(O)(Cc2cc(OC)c(OC)c(OC)c2)c2cc(C)ccc21` (centres unmarked) [Example 34, 1-ethyl-3-hydroxy-5-methyl-3-(3,4,5-trimethoxybenzyl)indolin-2-one] was tested, and the “LD Protection (# of rows)” value ([1]; 10 μM eyedrops once per day) was 5.47 # of rows, the “MTT, % protection” value ([3]; compound 1 nM) was 82.4%, and the activity at 0.001 µM [5] was 94%.

In the case of `COc1ccc(O)c(CC2(OC(=O)c3ccccc3)C(=O)N(CCCC(C)C)c3ccc(C)cc32)c1` (centres unmarked) [Example 58, 3-(2-hydroxy-5-methoxybenzyl)-5-methyl-1-(4-methylpentyl)-2-oxoindolin-3-yl benzoate], the “LD Protection (# of rows)” value ([1]; 100 μM eyedrops once per day) was 6.06 # of rows, the “s334ter protection (# of rows)” value ([2]; 50 nM) was 50 nM, 2.73 # of rows and the “MTT, % protection” value ([3]; compound 100 nM) was 100%,. It also gave an activity at 0.001 µM [5] of 97%.

In the case of `CCN1C(=O)C(Cc2cccc(OC)c2O)(OC(=O)c2ccccc2)c2cc(Cl)ccc21` (centres unmarked) [Example 59, 5-chloro-1-ethyl-3-(2-hydroxy-3-methoxybenzyl)-2-oxoindolin-3-yl benzoate], the “LD Protection (# of rows)” value ([1]; 100 μM eyedrops once per day) was 5.98 # of rows, the “MTT, % protection” value ([3]; compound 1 μM) was 117.4%, and the activity at 0.001 µM [5] was 92%.
